Results reported in paper PMC11314731 (Polymers, 2024).
Like-named read-outs stand apart in the source and are kept apart here.

Experiments:
[1] = cited from earlier work
[2] = test system: Mdr1a P-gp; design: method as in PMID 9050899; settings: cited from earlier work
[3] = test system: Caco-2 cells; assay: In vitro cellular uptake of Rh123 in Caco-2 cells; settings: Rh123 20 µM, 5 h incubation, 37 °C; TPGS 33 µM, CyA 4 µM

SMILES | LogP [1] | pKa [1] | increase in plasma AUC of PTX, Mdr1a knockout vs wild-type mice ([2]; IV administration) | increase in plasma AUC of PTX, Mdr1a knockout vs wild-type mice ([2]; oral administration) | fluorescence intensity (cellular uptake of Rh123) [3]
CC(=O)O[C@H]1C(=O)[C@@]2(C)[C@H]([C@H](OC(=O)c3ccccc3)[C@]3(O)C[C@H](OC(=O)[C@H](O)[C@@H](NC(=O)c4ccccc4)c4ccccc4)C(C)=C1C3(C)C)[C@]1(OC(C)=O)CO[C@@H]1C[C@@H]2O [PTX, Paclitaxel] | 3.66 | 10.36 | twofold increase | more than sixfold increase | –
COC(=O)c1ccccc1-c1c2ccc(=N)cc-2oc2cc(N)ccc12 [free Rh123, rhodamine 123] | – | – | – | – | very low fluorescence intensity
